How the values were obtained:
ACE2 = test: transcriptome analysis of untreated vs resistant xenograft tumors; assay type: in vivo, mice; settings: for ACE2 down modulation in resistant tumors vs control untreated tumors: 786-0 model
Protocol: Transcriptome analysis of the untreated tumors vs the resistant tumors was performed. ACE2 was the second most down-modulated gene common to the sorafenib and sunitinib treated 786-0 model with a 2.4 fold down modulation in the resistant tumors vs the control untreated tumors. Moreover, ACE2 was in the top 3 most down-modulated genes in the A498 tumor model with a 5-fold decrease i n resistant tumors vs untreated tumors (P<0.001).

[1] = system: human VHL deficient RCC cell lines (A498); settings: A498 xenograft; treatment begun at 12 mm diameter; resistance = time to grow 2 mm beyond pretreatment size; sunitinib 30 mg/kg daily by gavage
Protocol: A murine xenograft system to study resistance antiangiogenic agents was developed. To assess the effects of antiangiogenic therapy on the growth of human RCC xenografts, established human VHL deficient RCC cell lines (A498) were implanted subcutaneously (1×10^7 cells) into the flanks of 6-8 week old nude/beige mice. The tumors were measured in two axes and the largest axis was followed. Treatment with sunitinib or sorafenib was begun when the tumors reached a diameter of 12 mm (roughly 3 weeks after injection) and resistance to this treatment was monitored. Resistance was defined as the time required for a tumor to grow 2 mm beyond its pretreatment size. […] This model was used to study the mechanisms by which tumors escape angiogenesis inhibition.
The effect of sunitinib and Ang(1-7) on the growth of human RCC xenografts was tested. 1×10^7 cells were injected into the flanks of nude-beige mice. Established human VHL deficient RCC cell lines (A498) were implanted subcutaneously (1×10^7 cells) into the flanks of 6-8 week old nude/beige mice. The tumors were measured in two axes and the largest axis was followed. Treatment with sunitinib (30 mg/kg daily by gavage) and Ang(1-7) 1 mg/kg Ang(1-7) IP three times per week was begun when the tumors reached a diameter of 12 mm (roughly 3 weeks after injection). […]

| Compound | ACE2 down modulation in resistant tumors vs control untreated tumors (ACE2) [fold] | ACE2 expression (ACE2; murine xenograft system, sunitinib treatment) | period of relative stabilization [1] [days] |
| --- | --- | --- | --- |
| CNC(=O)c1cc(Oc2ccc(NC(=O)Nc3ccc(Cl)c(C(F)(F)F)c3)cc2)ccn1 [sorafenib] | 2.4 |  |  |
| CCN(CC)CCNC(=O)c1c(C)[nH]c(/C=C2\C(=O)Nc3ccc(F)cc32)c1C [sunitinib] | 2.4 | loss of ACE2 expression | 10 to 12 |

Source: patent US20200188473A1, “COMBINATION THERAPY FOR CANCER” (BETH ISRAEL DEACONESS MEDICAL CENTER, INC., priority 2017, published 2020)
